In patent US6391916B1, “Enediyne derivatives” (The Hong Kong University of Science and Technology, priority 2000, dated 2002):
Marks after values point to notes of the source that are not given here.

Columns and labels:
[1] = test system: φX174 RFI (Form I) double stranded DNA; test: DNA cleavage of supercoiled φX174 RFI (Form I) DNA, agarose gel electrophoresis and densitometry; assay type: biochemical; details: for net DNA cut (%) / DNA cleavage potency relative to Compound A: 37° C.; for net DNA cut (%): TEA buffer pH 8.5, 20% DMSO; for DNA cleavage potency relative to Compound A: 72 hours
Protocol: DNA cleavage studies on the compounds of this invention were performed by using supercoiled, covalently closed, circular φX174 RFI (Form I) double stranded DNA. Thus, a 54.3 μM/bp (micromolar per base pair) solution of φX174 RFI DNA and a compound in the indicated concentration in TEA buffer (pH 8.5) containing 20% DMSO was incubated at 37° C. for 48-72 hours and analyzed by 1% agarose gel electrophoresis to separate the various forms of DNA. DNA cleavage was indicated by the formation of nicked relaxed circular DNA (Form II) or linearized DNA (Form III), which was visualized using ethidium bromide stain. A photo picture of the gel was taken over a 365 nanometer ultra-violet light transilluminator and the relative densities of DNA bands were quantitated by a GS-700 imaging densitometer (BIO-RAD). The percentage of net DNA cleavage was calculated by the following equation:
Net DNA Cleavage (%)={[(Form II)s+2×(Form III)s]/[(Form I)s+(Form II)s+2×(Form III)s]×100}−{(Form II)c/[(Form I)c+(Form II)c]×100}
wherein the subscripts “s” and “c” refer to as the samples and controls, respectively.

[2] = test system: P388 mice T cell leukemia cells; test: Cytotoxicity by MTT assay in P388 cells; assay type: cell-based, mouse
Protocol: Cytotoxicity was assessed in P388 mice T cell leukemia cells by MTT [3-(4,5-dimethylthiazol-2-yl)-2,5-diphenyl-2H-tetrazolium bromide] assay. Cell suspension (1×10^5 cells/mL) was plated in 96 well microtiter plates at 50 μL/well and it was followed by 50 μL/well of the test compound in serially diluted concentrations. The cells were incubated at 37° C. in a humidified atmosphere containing 5% CO2 in air for 72 hours at which time the tetrazolium dye, MTT, was added. After another 3 hours incubation, 100 μL/well of acidified 2-propanol (0.04 N HCl) was added. The optical densities of the plates were measured with a microplate reader (BIO-RAD) at 570 nm. The greater the absorbance the greater the number of live cells. The results are expressed as an IC50 which is the drug concentration required to inhibit cell proliferation to 50% of that of untreated control cells. The detailed procedure is found in Mosman, J. Immunol. Methods 65:55 (1983); Ferrari et al., Immunol. Methods 131:165 (1990).

[3] = test system: φX174 RFI (Form I) double stranded DNA; test: DNA cleavage of supercoiled φX174 RFI (Form I) DNA, agarose gel electrophoresis and densitometry; assay type: biochemical; details: FIG. 1; 100 μM, pH range 7.0-8.5, 72 hours
[4] = at 37° C.; cited from earlier work
[5] = P388 mouse leukemia cells, 37° C., 72 h, 5% CO2

In the case of `CC(=O)OC1C#CCCCCC#C/C1=C\c1ccccc1CO` (stereo not drawn) [Compound 35a, (E)-3-Acetoxy-4-[2′-((hydroxymethyl)phenyl)methylidene]cyclodeca-1,5-diyne], the “net DNA cut (%)” value ([1]; At 100 μM) is reported as 23.5[c] % and the IC50 [2, 5] is reported as 21 µM.
For `COCC(=O)OC1C#CCCCCC#C/C1=C\c1ccccc1CO` (stereo not drawn) [Compound 35b], the “net DNA cut (%)” value ([1]; At 100 μM) was 17.6[c] % and the IC50 [2, 5] was 16 µM.
For `O=C(OC1C#CCCCCC#C/C1=C\c1cccc2ccccc12)c1cccc2cc3ccccc3cc12` (stereo not drawn) [Compound 41, (E)-3-[(1′-Anthracenecarbonyl)oxy]-4-(1″-naphthylmethylidene)cyclodeca-1,5-diyne], the “net DNA cut (%)” value ([1]; At 5 μM) was 10.6[d] %, the “DNA cleavage activity (in words)” value ([1]; FIG. 5, 5 μM, pH 8.5) was “reduced the DNA cleaving potency” and the IC50 [2, 5] was 11 µM.
For `COc1ccc(/C=C2\C#CCCCCC#CC2OC(C)=O)cc1` (stereo not drawn) [Compound 30a, (E)-3-Acetoxy-4-[(4′-methoxyphenyl)methylidene]cyclodeca-1,5-diyne], the “net DNA cut (%)” value ([1]; At 20 μM) was 86.4[b] % and the IC50 [2, 5] was 15 µM.
With `CC(=O)OC1C#CCCCCC#C/C1=C\c1cccc2ccccc12` (stereo not drawn) [Compound 30b, (E)-3-Acetoxy-4-(1′-naphthylmethylidene)cyclodeca-1,5-diyne] the “net DNA cut (%)” value ([1]; At 5 μM) was 33.5[d] %, the “net DNA cut (%)” value ([1]; At 20 μM) was 77.7[b] % and the IC50 ([2]; Mus musculus, P388 cells) was 2.4 µM. For the same molecule, the IC50 [2, 5] was 2.4 µM.
With `COCC(=O)OC(/C1=C/C#CCCCCC#C1)c1ccccc1` (stereo not drawn) [Compound 42, 3-[(1′-Methoxyacetoxy-1′-phenyl)methyl]cyclodeca-3-en-1,5-diyne] the “net DNA cut (%)” value ([1]; At 20 μM) was 12.9[b] %, the “DNA cleavage potency relative to Compound A” value ([1]; FIG. 2, pH 8.5) was “ca. 100 fold” and the IC50 [2, 5] was 7.7 µM.
In the case of `CCC(=O)OC1C#CCCCCC#C/C1=C\c1cccc2ccccc12` (stereo not drawn) [Compound 36, (E)-4-(1′-Naphthylmethylidene)-3-(propanoyloxy)cyclodeca-1,5-diyne], the IC50 [2, 5] is reported as 10 µM.
With `C1#CCCCCC#C/C(C2OCc3ccccc32)=C\1` (stereo not drawn) [Compound 51, 3-[2′,5′-Dihydrobenzofuran-2′-yl]cyclodeca-3-en-1,5-diyne] the “DNA cleavage activity (in words)” value ([1]; FIG. 6, 100 μM, pH 8.5) was “less potent than Compound 42”.
For `COc1ccc(OC)c(C(=O)OC2C#CCCCCC#C/C2=C\c2cccc3ccccc23)c1` (stereo not drawn) [Compound 40, (E)4-(1′-Naphthylmethylidene)-3-((2″,5″-dimethoxybenzoyl)oxy)cyclodeca-1,5-diyne], the “net DNA cut (%)” value ([1]; At 5 μM) was 35.6[d] %, the “DNA cleavage activity (in words)” value ([1]; FIG. 5, 5 μM, pH 8.5) was “little effect as compared to the acetate in Compound 30b” and the IC50 [2, 5] was 17 µM.
In the case of `CC(=O)OC1C#CCCCCC#C/C1=C\c1ccccc1` (stereo not drawn) [Compound 29, (E)-3-Acetoxy-4-(phenylmethylidene)cyclodeca-1,5-diyne], the “net DNA cut (%)” value ([1]; At 20 μM) is reported as 19.3[b] %, the IC50 [2, 5] is reported as 48 µM and the “DNA cleavage activity (in words)” value [3] is reported as “slightly higher DNA cleavage activity in the basic pHs”.
For `COCC(=O)OC(C1=CC#CCCCCC#C1)c1ccccc1CO[Si](C)(C)C(C)(C)C` (stereo not drawn) [Compound 45, 3-[1′-(2″-(((tert-Butyldimethyl)silyloxy)methyl)phenyl)-1′-(methoxyacetoxy)methyl]cyclodeca-3en-1,5-diyne], the “net DNA cut (%)” value ([1]; At 100 μM) was 4.13[c] % and the IC50 [2, 5] was 12 µM.
With `COc1ccc(COCC(=O)OC2C#CCCCCC#C/C2=C\c2cccc3ccccc23)cc1` (stereo not drawn) [Compound 39, (E)-3-[(4′-Methoxybenzyl)oxy]acetoxy-4-(1″-naphthylmethylidene)cyclodeca-1,5-diyne] the “net DNA cut (%)” value ([1]; At 5 μM) was 26.1[d] % and the IC50 [2, 5] was 97 µM.
With `COCC(=O)OC1C#CCCCCC#C/C1=C\c1ccc2ccccc2c1` (stereo not drawn) [Compound 32c, (E)-3-Methoxyacetoxy-4-(2′-naphthylmethylidene)cyclodeca-1,5-diyne] the “net DNA cut (%)” value ([1]; At 20 μM) was 71.9[b] % and the IC50 [2, 5] was 28 µM.
In the case of `CCCCCCCC(=O)OC1C#CCCCCC#C/C1=C\c1cccc2ccccc12` (stereo not drawn) [Compound 37, (E)-4-(1′-Naphthylmethylidene)-3-(octanoyloxy)cyclodeca-1,5-diyne], the “net DNA cut (%)” value ([1]; At 5 μM) is reported as 4.67[d] %, the “DNA cleavage activity relative to Compound 32b” value ([1]; FIG. 5, 5 μM, pH 8.5) is reported as “ca. one eighth” and the IC50 [2, 5] is reported as 13 µM.
With `COCC(=O)OC(/C1=C/C#CCCCCC#C1)c1ccccc1CO` (stereo not drawn) [Compound 48] the IC50 [2, 5] was 8.1 µM.
For `COCC(=O)OC(/C1=C/C#CCCCCC#C1)c1cccc2ccccc12` (stereo not drawn) [Compound 43a, 3-[(1′-Methoxyacetoxy-1′-(1″-naphthyl))methyl]cyclodeca-3-en-1,5-diyne], the “net DNA cut (%)” value ([1]; At 20 μM) was 67.4[b] % and the IC50 [2, 5] was 3.8 µM.
With `COCC(=O)OC1C#CCCCCC#C/C1=C\c1ccccc1CO[Si](C)(C)C(C)(C)C` (stereo not drawn) [Compound 34b, (E)-4-[2′-((((tert-butyldimethyl)silyloxy)methyl)phenyl)methylidene]-3-(methoxyacetoxy)cyclodeca-1,5-diyne] the “net DNA cut (%)” value ([1]; At 100 μM) was 14.4[c] % and the IC50 [2, 5] was > 50 µM.
For `CC(=O)OC1C#CCCCCC#C/C1=C\c1ccccc1CO[Si](C)(C)C(C)(C)C` (stereo not drawn) [Compound 34a, (E)-3-Acetoxy-4-[2′-((((tert-butyldimethyl)silyloxy)methyl)phenyl)methylidene]cyclodeca-1,5-diyne], the “net DNA cut (%)” value ([1]; At 100 μM) was 10.7[c] % and the IC50 [2, 5] was > 50 µM.
With `COc1ccc(C(O)/C2=C/C#CCCCCC#C2)cc1` (stereo not drawn) [Compound 33, 3-[1′-Hydroxy-1′-(4″-methoxyphenyl)methyl]cyclodeca-3-en-1,5-diyne] the “DNA cleavage activity (in words)” value ([1]; FIG. 4, 20 μM, pH 8.5) was “reduced DNA cleavage activity”.
In the case of `C1#CCCCCC#CC=C1` [cyclodeca-1,5-diyn-3-ene], the half-life [4] is given as 18 h.
In the case of `COCC(=O)OC1C#CCCCCC#C/C1=C\c1ccccc1` (stereo not drawn) [Compound 31, (E)-3-Methoxyacetoxy4-(phenylmethylidene)cyclodeca-1,5-diyne], the “net DNA cut (%)” value ([1]; At 20 μM) is reported as 13.2[b] %, the “DNA cleavage potency relative to Compound A” value ([1]; FIG. 2, pH 8.5) is reported as “ca. 100 fold” and the “DNA cleavage activity (in words)” value ([1]; FIG. 2, concentration range 5-100 μM, pH 8.5) is reported as “same level of DNA cleavage activity as enediyne, Compound 42”. It also gave an IC50 [2, 5] of 23 µM.
For `COCC(=O)OC1C#CCCCCC#C/C1=C\c1cccc2ccccc12` (stereo not drawn) [Compound 32b, (E)-3-Methoxyacetoxy-4-(1′-naphthylmethylidene)cyclodeca-1,5-diyne], the “net DNA cut (%)” value ([1]; At 5 μM) was 38.8[d] %, the “net DNA cut (%)” value ([1]; At 20 μM) was 87.4[b] % and the IC50 [2, 5] was 12 µM.
For `CC(=O)OC1C#CCCCCC#C/C1=C\c1ccc2ccccc2c1` (stereo not drawn) [Compound 30c, (E)-3-Acetoxy-4-(2′-naphthylmethylidene)cyclodeca-1,5-diyne], the “net DNA cut (%)” value ([1]; At 20 μM) was 82.3[b] %, the IC50 ([2]; Mus musculus, P388 cells) was 2.8 µM and the IC50 [2, 5] was 2.8 µM.
In the case of `COCC(=O)OC(/C1=C/C#CCCCCC#C1)c1ccc2ccccc2c1` (stereo not drawn) [Compound 43b, 3-[(1′-Methoxyacetoxy-1′-(2″-naphthyl))methyl]cyclodeca-3-en-1,5-diyne], the “net DNA cut (%)” value ([1]; At 20 μM) is reported as 77.8[b] % and the IC50 [2, 5] is reported as 9.6 µM.
With `OC1C#CCCCCC#C/C1=C\c1ccccc1` (stereo not drawn) [Compound 6, (E)-4-(Phenylmethylidene)cyclodeca-1,5-diyn-3-ol] the “DNA cleavage activity (in words)” value [3] was “less potent compared to the corresponding acetate, Compound 29”.
In the case of `O=C(COCc1ccccc1)OC1C#CCCCCC#C/C1=C\c1cccc2ccccc12` (stereo not drawn) [Compound 38, (E)-3-(Benzyloxy)acetoxy4-(1′-naphthylmethylidene)cyclodeca-1,5-diyne], the “net DNA cut (%)” value ([1]; At 5 μM) is reported as 38.6[d] % and the IC50 [2, 5] is reported as 6.7 µM.
